In assay [1] the target is T1, Torpedo nAChR (Tetronarce californica, UniProt P02710+P02712+P02714+P02718). It is filed as cell-based.
In assay [2] the target is T1, Torpedo nAChR. Nature of the assay: [125I]-SADU-3-72 competition binding assay.
Assay [3] has as its target T1, Torpedo nAChR. The assay is described as follows: biochemical. It is filed as binding. The following applies: for reduction of agonist-enhanced [125I]SADU-3-72 photolabeling within αV8-20K: 130 μM bupropion (separate experiment) or TCP.
Assay [4] concerns α1β1εδ (adult mouse muscle-type) nAChRs. To be noted: read-out: IC50, impaired channel opening; binding to the resting nAChR; HEK-293 cells; cited from earlier work.
Setting [5] is: desensitized state (Carb), TCP 130 μM, native nAChR-rich membranes, n=1.
Where [6] appears, read: resting state (+α-BgTx), tetracaine 130 μM, native nAChR-rich membranes, n=1.

SMILES strings stand for the structures. “And” between values parts separate entries of the source, which are not always exact repeats. Equal values may be shown once. Read-outs that look alike come from different tables or passages of the source. Some results are limits rather than exact numbers.

T1 sequence (P02710 25-461): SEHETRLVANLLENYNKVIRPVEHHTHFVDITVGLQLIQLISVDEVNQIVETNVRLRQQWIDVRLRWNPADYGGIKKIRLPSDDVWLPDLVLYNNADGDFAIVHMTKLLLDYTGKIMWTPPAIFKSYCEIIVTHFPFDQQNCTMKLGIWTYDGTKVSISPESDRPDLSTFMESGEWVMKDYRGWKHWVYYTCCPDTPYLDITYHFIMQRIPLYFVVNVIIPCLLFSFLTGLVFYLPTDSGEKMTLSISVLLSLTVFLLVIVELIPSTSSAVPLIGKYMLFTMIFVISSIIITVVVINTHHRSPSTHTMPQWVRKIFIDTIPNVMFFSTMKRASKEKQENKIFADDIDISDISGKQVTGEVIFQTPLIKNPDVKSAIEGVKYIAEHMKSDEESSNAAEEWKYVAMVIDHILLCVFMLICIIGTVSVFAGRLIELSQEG
T1 sequence (P02712 25-493): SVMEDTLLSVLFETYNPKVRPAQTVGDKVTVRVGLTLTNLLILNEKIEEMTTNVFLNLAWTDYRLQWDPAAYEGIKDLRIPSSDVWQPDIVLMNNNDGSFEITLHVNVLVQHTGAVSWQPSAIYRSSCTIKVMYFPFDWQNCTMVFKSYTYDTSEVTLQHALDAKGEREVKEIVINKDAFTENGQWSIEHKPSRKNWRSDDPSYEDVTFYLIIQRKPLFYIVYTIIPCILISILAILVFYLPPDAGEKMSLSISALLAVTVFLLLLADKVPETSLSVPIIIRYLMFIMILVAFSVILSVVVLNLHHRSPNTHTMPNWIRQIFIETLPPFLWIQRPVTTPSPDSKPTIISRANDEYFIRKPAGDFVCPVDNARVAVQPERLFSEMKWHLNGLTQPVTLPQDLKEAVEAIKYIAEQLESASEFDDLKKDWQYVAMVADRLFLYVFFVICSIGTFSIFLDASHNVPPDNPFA
T1 sequence (P02714 18-506): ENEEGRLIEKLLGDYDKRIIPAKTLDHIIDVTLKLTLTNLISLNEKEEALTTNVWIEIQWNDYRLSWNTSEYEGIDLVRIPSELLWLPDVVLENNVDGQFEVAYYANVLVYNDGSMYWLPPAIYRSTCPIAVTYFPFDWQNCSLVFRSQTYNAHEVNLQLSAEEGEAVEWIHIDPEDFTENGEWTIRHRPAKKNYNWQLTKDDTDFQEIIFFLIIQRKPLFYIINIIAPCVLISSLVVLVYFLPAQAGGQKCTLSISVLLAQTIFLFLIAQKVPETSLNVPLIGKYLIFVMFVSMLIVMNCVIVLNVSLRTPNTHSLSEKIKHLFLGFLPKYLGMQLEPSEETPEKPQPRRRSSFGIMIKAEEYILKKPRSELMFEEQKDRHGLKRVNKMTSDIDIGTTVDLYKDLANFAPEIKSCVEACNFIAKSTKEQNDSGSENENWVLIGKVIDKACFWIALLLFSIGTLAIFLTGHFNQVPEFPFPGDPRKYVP
T1 sequence (P02718 22-522): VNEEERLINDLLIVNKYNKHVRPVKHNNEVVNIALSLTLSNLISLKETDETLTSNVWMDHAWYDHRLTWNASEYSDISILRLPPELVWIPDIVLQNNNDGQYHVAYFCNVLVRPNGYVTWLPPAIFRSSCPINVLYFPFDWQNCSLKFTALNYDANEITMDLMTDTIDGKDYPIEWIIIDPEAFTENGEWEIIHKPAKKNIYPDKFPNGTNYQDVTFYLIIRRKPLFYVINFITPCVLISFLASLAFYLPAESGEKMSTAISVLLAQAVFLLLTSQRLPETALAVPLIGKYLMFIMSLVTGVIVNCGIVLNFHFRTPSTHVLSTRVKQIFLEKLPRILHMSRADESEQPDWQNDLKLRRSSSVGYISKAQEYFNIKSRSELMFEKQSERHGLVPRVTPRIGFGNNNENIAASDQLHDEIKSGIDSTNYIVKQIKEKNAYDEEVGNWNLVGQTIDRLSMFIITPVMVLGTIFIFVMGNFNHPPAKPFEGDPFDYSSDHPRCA

For orientation: IC50 means the concentration at which inhibition is half-maximal. For the molecule `CC(NC(C)(C)C)C(=O)c1cccc(Cl)c1` (racemic) [bupropion, (±)-2-(tert-butylamino)-1-(3-chlorophenyl) propan-1-one], the concentration for half-maximal inhibition (IC50) against Torpedo nAChR [1] is 340 nM and 300 nM; on Torpedo nAChR [2] (IC50, inhibition of [125I]SADU-3-72 binding, native nAChR-rich membranes, desensitized state (400 μM Carb)), 1200 nM and 1000 nM; at Torpedo nAChR [3] (IC50, inhibition of δ subunit [125I]SADU-3-72 photolabeling, presence of Carb (desensitized state)), 2100 nM and 2000 nM; in assay [4], 400 nM. In addition, at Torpedo nAChR [1] (co-applied with 50 μM ACh, n=7 oocytes), the “Hill coefficient nH of inhibition of ACh-induced currents” value stood at 0.98 ± 0.14. In addition, on Torpedo nAChR [2] (from inhibition of [125I]SADU-3-72 binding / photoincorporation), the “fold higher affinity in the desensitized than in the resting state” value is “three-fold”. Moreover, on Torpedo nAChR [3] (desensitized state (Carb)), the “reduction of agonist-enhanced [125I]SADU-3-72 photolabeling within αV8-20K” value came out at 70%.
`c1csc(C2(N3CCCCC3)CCCCC2)c1` [TCP, 1-(1-(2-Thienyl)cyclohexyl) piperidine (tenocyclidine)]: on Torpedo nAChR [3] (desensitized state (400 μM Carb), 130 μM TCP, preparative photolabeling), the “effect on [125I]SADU-3-72 labeling of δLeu265 (M2-9)” value is recorded as “eliminated”. Besides, the “reduction of agonist-enhanced [125I]SADU-3-72 photolabeling within αV8-20K” value on Torpedo nAChR [3] (desensitized state (Carb)) is given as “not inhibited”. On Torpedo nAChR [3] (setting [5]), the “effect on [125I]SADU-3-72 β subunit labeling” value is reported as “unchanged” and the “increase of [125I]SADU-3-72 photolabeling in α-subunit” value is listed as ~ 15%. For the same molecule, the “effect on [125I]SADU-3-72 labeling in βV8-22/23K, γV8-24K and δV8-14K fragments” value at Torpedo nAChR [3] (desensitized state (Carb), TCP (140 μM in Figure 5 legend)) is “further inhibited labeling”. The inhibition at 130 µM on Torpedo nAChR [3] (read-out: inhibition of [125I]SADU-3-72 photolabeling in γ-subunit) is about 35%. Further, the inhibition at 130 µM at Torpedo nAChR [3] (read-out: inhibition of [125I]SADU-3-72 photolabeling in δ-subunit) was about 35%.
Regarding `CC(NC(C)(C)C)C(=O)c1ccc(N=[N+]=[N-])c(I)c1` (racemic) [SADU-3-72, (±)-2-(N-tert-butylamino)-3′-[^125I]-iodo-4′-azidopropiophenone], the IC50 on Torpedo nAChR [2] (read-out: IC50, inhibition of [125I]SADU-3-72 binding, affinity-purified, lipid-reconstituted nAChR, absence of Carb (resting state)) worked out at 2300 ± 700 nM.
As to `CCCCNc1ccc(C(=O)OCCN(C)C)cc1` [tetracaine], the inhibition at 130 µM at Torpedo nAChR [3] (read-out: inhibition of [125I]SADU-3-72 labeling within αV8-20K fragment) was 49%; at Torpedo nAChR [3] (read-out: inhibition of [125I]SADU-3-72 labeling within βV8-22/23K fragment), 76%; on Torpedo nAChR [3] (read-out: inhibition of [125I]SADU-3-72 labeling within γV8-24K fragment), 79%; on Torpedo nAChR [3] (read-out: inhibition of [125I]SADU-3-72 labeling within δV8-14K fragment) it was 88%. The “reduction of [125I]SADU-3-72 photolabeling in α-subunit” value on Torpedo nAChR [3] (setting [6]) is under 5%. Also, the “reduction of [125I]SADU-3-72 photolabeling in β-subunit” value on Torpedo nAChR [3] (setting [6]) is recorded as 55%. Also, the “reduction of [125I]SADU-3-72 photolabeling in γ-subunit” value on Torpedo nAChR [3] (setting [6]) was determined as 51%. Further, the “reduction of [125I]SADU-3-72 photolabeling in δ-subunit” value at Torpedo nAChR [3] (setting [6]) was 73%. The “inhibition of [125I]-SADU-3-72 photoincorporation within subunit fragments containing the M2 segments” value at Torpedo nAChR [3] (resting state, αV8-20, βV8-22, γV8-24 and δV8-14) is 50–90%.
On to `CC(=O)OCC[N+](C)(C)C` [ACh, Acetylcholine], for which, at Torpedo nAChR [1] (n=1), the “Hill coefficient nH, ACh dose-response curve” value is given as 1.5.

Values taken from publication PMC3315157 (Biochemistry, 2012).
